Assay results published in US9326513B2, “Fungicidal compositions” (Syngenta Participations AG, priority 2011, dated 2016).
Where two headings read alike, the source gives them in different places.

Assays:
Assay type in all cases: cell-based
[1] = test system: Monographella nivalis (syn. Microdochium nivale, Fusarium nivale); assay: Monographella nivalis (snow mould, foot rot of cereals), PDB microtiter plate, visual after 72 hrs; details: for inhibition at 0.15625 ppm: rate 0.15625 ppm; for inhibition at 0.3125 ppm: rate 0.3125 ppm; for inhibition at 0.03125 ppm: rate 0.03125 ppm
[2] = test system: Septoria tritici; assay: Septoria tritici (leaf blotch), PDB microtiter plate, visual after 72 hrs; details: single compound
[3] = test system: Botrytis cinerea; assay: Botrytis cinerea (gray mould), PDB microtiter plate, visual after 72 hrs; details: for inhibition at 0.625 ppm: rate 0.625 ppm; for inhibition at 1.25 ppm: rate 1.25 ppm; for inhibition at 2.5 ppm: rate 2.5 ppm; for inhibition at 5 ppm: rate 5 ppm; for inhibition at 10 ppm: rate 10 ppm
[4] = Monographella nivalis, applied alone, 0.625 ppm
[5] = Monographella nivalis, applied alone, 1.25 ppm
[6] = Monographella nivalis, applied alone, 2.5 ppm
[7] = Monographella nivalis, applied alone, 5 ppm
[8] = Monographella nivalis, applied alone
[9] = Monographella nivalis, applied alone, rate 0.625 ppm
[10] = Monographella nivalis, applied alone, rate 1.25 ppm
[11] = Botrytis cinerea, alone, read-out: Activity (%)
[12] = Botrytis cinerea, single compound, read-out: Activity (%)
[13] = Monographella nivalis, applied alone, 0.0625 ppm
[14] = Monographella nivalis, applied alone, 0.125 ppm
[15] = Monographella nivalis, applied alone, 0.25 ppm
[16] = Monographella nivalis, applied alone, 0.5 ppm
[17] = Monographella nivalis, applied alone, rate 0.0625 ppm
[18] = Monographella nivalis, applied alone, rate 0.125 ppm
[19] = Monographella nivalis, applied alone, rate 0.25 ppm
[20] = Botrytis cinerea, alone, rate 0.125 ppm
[21] = Botrytis cinerea, alone, rate 0.25 ppm
[22] = Botrytis cinerea, alone, rate 0.5 ppm
[23] = Zymoseptoria tritici, 0.125 ppm
[24] = Monographella nivalis, applied alone, rate 2.5 ppm

`CC(C)(C)[C@@H](O)[C@@H](Cc1ccc(Cl)cc1)n1cncn1` (racemic) [Paclobutrazol] gave an inhibition at 0.625 ppm [1, 4] of 0%, an inhibition at 1.25 ppm [1, 5] of 0% and an inhibition at 2.5 ppm [1, 6] of 0%. For the same compound, the inhibition at 5 ppm [1, 7] was 0%, the inhibition at 10 ppm ([1]; Monographella nivalis, applied alone, 10 ppm) was 0% and the inhibition at 0.15625 ppm [1, 8] was 0%. It also gave an inhibition at 0.3125 ppm [1, 8] of 0%, an inhibition at 0.625 ppm [1, 9] of 0% and an inhibition at 1.25 ppm [1, 10] of 0%. It also gave an inhibition at 0.15625 ppm ([2]; Zymoseptoria tritici, 0.15625 ppm) of 0%, an inhibition at 0.3125 ppm ([2]; Zymoseptoria tritici, 0.3125 ppm) of 20% and an inhibition at 0.625 ppm ([2]; Zymoseptoria tritici, 0.625 ppm) of 0%. It also gave an inhibition at 1.25 ppm ([2]; Zymoseptoria tritici, 1.25 ppm) of 0%, an inhibition at 5 ppm ([2]; Zymoseptoria tritici, 5 ppm) of 70% and an inhibition at 10 ppm ([2]; Zymoseptoria tritici, 10 ppm) of 70%. For the same compound, the “Activity (%)” value ([2]; 5 ppm) was 50%, the inhibition at 0.625 ppm ([3]; Botrytis cinerea, alone) was 0% and the inhibition at 1.25 ppm ([3]; Botrytis cinerea, alone) was 0%. For the same compound, the inhibition at 2.5 ppm [3, 11] was 0%, the inhibition at 1.25 ppm ([3]; Botrytis cinerea, single compound) was 0% and the inhibition at 2.5 ppm [3, 12] was 0%. For the same compound, the inhibition at 5 ppm [3, 12] was 70%.
For `OC(Cn1cncn1)(c1ccc(F)cc1)c1ccccc1F` (stereo not shown) [Flutriafol], the inhibition at 0.0625 ppm [1, 13] was 0%, the inhibition at 0.125 ppm [1, 14] was 0% and the inhibition at 0.25 ppm [1, 15] was 0%. The inhibition at 0.5 ppm [1, 16] was 0%, the inhibition at 0.03125 ppm [1, 8] was 0% and the inhibition at 0.0625 ppm [1, 17] was 0%. The inhibition at 0.125 ppm [1, 18] was 0%, the inhibition at 0.25 ppm [1, 19] was 0% and the inhibition at 0.5 ppm ([1]; Monographella nivalis, applied alone, rate 0.5 ppm) was 0%. It also gave an inhibition at 1 ppm ([1]; Monographella nivalis, applied alone, rate 1 ppm) of 0%, an inhibition at 2 ppm ([1]; Monographella nivalis, applied alone, rate 2 ppm) of 0% and an inhibition at 0.5 ppm ([2]; Zymoseptoria tritici, 0.5 ppm) of 0%. For the same compound, the inhibition at 1 ppm ([2]; Zymoseptoria tritici, 1 ppm) was 0%, the inhibition at 0.125 ppm [3, 20] was 0% and the inhibition at 0.25 ppm [3, 21] was 0%. The inhibition at 0.5 ppm [3, 22] was 0%, the inhibition at 1 ppm ([3]; Botrytis cinerea, alone, rate 1 ppm) was 0% and the inhibition at 2 ppm ([3]; Botrytis cinerea, alone, rate 2 ppm) was 0%.
In the case of `CO/C=C(/C(=O)OC)c1ccccc1COc1cccc(C(F)(F)F)n1` [Picoxystrobin], the “Activity (%)” value ([2]; 0.015625 ppm) is reported as 70%, the “Activity (%)” value ([2]; 0.03125 ppm) is reported as 90% and the “Activity (%)” value ([3]; alone, rate 0.25 ppm) is reported as 50%. For the same compound, the “Activity (%)” value ([3]; alone, rate 0.5 ppm) was 50%, the “Activity (%)” value ([3]; alone, rate 1 ppm) was 50% and the “Activity (%)” value ([3]; alone, rate 2 ppm) was 50%.
For `Cc1nn(C)c(F)c1C(=O)Nc1ccccc1C(C)CC(C)C` (stereo not shown) [Penflufen], the “Activity (%)” value ([1]; applied alone, 0.5 ppm) was 0%, the “Activity (%)” value ([1]; applied alone, 1 ppm) was 20% and the “Activity (%)” value ([1]; applied alone, rate 0.5 ppm) was 0%. For the same compound, the “Activity (%)” value ([1]; applied alone, rate 1 ppm) was 20%, the “Activity (%)” value ([2]; 0.125 ppm) was 0% and the “Activity (%)” value ([2]; 0.25 ppm) was 20%. The “Activity (%)” value ([2]; 0.5 ppm) was 70%.
`CCCC1COC(Cn2cncn2)(c2ccc(Cl)cc2Cl)O1` (stereo not shown) [Propiconazole] was tested, and the inhibition at 0.0625 ppm [1, 13] was 0%, the inhibition at 0.125 ppm [1, 14] was 0% and the inhibition at 0.25 ppm [1, 15] was 0%. It also gave an inhibition at 0.5 ppm [1, 16] of 0%, an inhibition at 1 ppm ([1]; Monographella nivalis, applied alone, 1 ppm) of 20% and an inhibition at 0.015625 ppm ([1]; Monographella nivalis, applied alone, rate 0.015625 ppm) of 0%. The inhibition at 0.03125 ppm [1, 8] was 0%, the inhibition at 0.0625 ppm [1, 17] was 0% and the inhibition at 0.125 ppm [1, 18] was 0%. It also gave an inhibition at 0.25 ppm [1, 19] of 0%, an inhibition at 0.125 ppm [2, 23] of 50% and an inhibition at 0.0625 ppm ([3]; Botrytis cinerea, alone, rate 0.0625 ppm, read-out: Activity (%)) of 0%. It also gave an inhibition at 0.125 ppm [3, 20] of 0%, an inhibition at 0.25 ppm [3, 21] of 0% and an inhibition at 0.5 ppm [3, 22] of 50%. The inhibition at 0.25 ppm ([3]; Botrytis cinerea, single compound, rate 0.25 ppm) was 0% and the inhibition at 0.5 ppm ([3]; Botrytis cinerea, single compound, rate 0.5 ppm) was 50%.
In the case of `CCOC(=O)C1CC(=O)C(=C(O)C2CC2)C(=O)C1` (stereo not shown) [Trinexapacethyl], the inhibition at 0.625 ppm [1, 4] is reported as 0%, the inhibition at 1.25 ppm [1, 5] is reported as 0% and the inhibition at 2.5 ppm [1, 6] is reported as 0%. For the same compound, the inhibition at 5 ppm [1, 7] was 0%, the inhibition at 0.12625 ppm ([1]; Monographella nivalis, applied alone, rate 0.12625 ppm) was 0% and the inhibition at 0.3125 ppm [1, 8] was 0%. The inhibition at 0.625 ppm [1, 9] was 0%, the inhibition at 1.25 ppm [1, 10] was 0% and the inhibition at 2.5 ppm [1, 24] was 0%. For the same compound, the inhibition at 1.25 ppm ([3]; Botrytis cinerea, alone) was 0%, the inhibition at 2.5 ppm [3, 11] was 0% and the inhibition at 5 ppm [3, 11] was 0%. For the same compound, the inhibition at 10 ppm [3, 11] was 0% and the inhibition at 20 ppm ([3]; Botrytis cinerea, alone, rate 20 ppm, read-out: Activity (%)) was 0%.
`O=C(NCCc1ncc(C(F)(F)F)cc1Cl)c1ccccc1C(F)(F)F` [Fluopyram] showed an inhibition at 0.125 ppm [2, 23] of 0% and an inhibition at 0.25 ppm ([2]; Zymoseptoria tritici, 0.25 ppm, read-out: Activity (%)) of 50%.
In the case of `CO/C=C(/C(=O)OC)c1ccccc1Oc1cc(Oc2ccccc2C#N)ncn1` [Azoxystrobin], the “Activity (%)” value ([1]; applied alone, 0.00625 ppm) is reported as 50%, the “Activity (%)” value ([1]; applied alone, rate 0.0015625 ppm) is reported as 0% and the “Activity (%)” value ([1]; applied alone, rate 0.003125 ppm) is reported as 20%. For the same compound, the “Activity (%)” value ([1]; applied alone, rate 0.00625 ppm) was 70%, the “Activity (%)” value ([3]; alone, rate 0.025 ppm) was 0% and the “Activity (%)” value ([3]; alone, rate 0.05 ppm) was 0%. For the same compound, the “Activity (%)” value ([3]; alone, rate 0.1 ppm) was 0%, the “Activity (%)” value ([3]; alone, rate 0.125 ppm) was 0% and the “Activity (%)” value ([3]; alone, rate 0.2 ppm) was 20%. For the same compound, the “Activity (%)” value ([3]; alone, rate 0.25 ppm) was 20%.
Compound `CS(=O)(=O)c1ccc(C(=O)C2C(=O)CCCC2=O)c([N+](=O)[O-])c1` [Mesotrione] has an inhibition at 2.5 ppm [1, 6] of 0%, an inhibition at 5 ppm [1, 7] of 0% and an inhibition at 0.078125 ppm ([1]; Monographella nivalis, applied alone, rate 0.078125 ppm) of 0%. The inhibition at 0.15625 ppm [1, 8] was 0%, the inhibition at 0.3125 ppm [1, 8] was 0% and the inhibition at 0.625 ppm [1, 9] was 0%. The inhibition at 1.25 ppm [1, 10] was 0%, the inhibition at 2.5 ppm [1, 24] was 0% and the inhibition at 10 ppm ([1]; Monographella nivalis, single compound, rate 10 ppm) was 0%. The inhibition at 20 ppm ([1]; Monographella nivalis, single compound, rate 20 ppm) was 0%, the inhibition at 5 ppm ([1]; Monographella nivalis, single compound, rate 5 ppm) was 0% and the inhibition at 0.625 ppm ([3]; Botrytis cinerea, alone) was 0%. For the same compound, the inhibition at 1.25 ppm ([3]; Botrytis cinerea, alone) was 0%, the inhibition at 2.5 ppm [3, 11] was 0% and the inhibition at 5 ppm [3, 11] was 0%. The inhibition at 10 ppm [3, 11] was 0%.
